# Legend:
# [1] = test system: Non Small Cell Lung Cancer (NSCLC) tissue; assay: PamChip kinase activity of NSCLC tumor tissue lysates with and without inhibitor; format: biochemical; settings: 1 μmol/L inhibitor, short vs long survival patients, data not shown
# [2] = test system: UT-SCC-9, UT-SCC-27, UT-SCC-54C, and UT-SCC-76; assay: PamChip kinase inhibition profiles of 4 patient derived head and neck squamous cell carcinoma cell lines; format: biochemical; settings: selected set of peptides, FIG. 3b
# Description: Cells were harvested and were lysed in Mammalian Extraction Buffer (M-PER, Pierce) containing phosphatase and protease inhibitors (HALT, Pierce). Five microliter of the lysis solution was pipetted into a reaction mixture composed of 1×ABL buffer (New England Biolabs, cat.nr B6050S), 0.1% Bovine Serum Albumin, 100 μM ATP, 20 μg/ml phosphotyrosine antibody to an end volume of 40 microliter. Before incubation a blocking step was carried out on the substrate arrays with 0.2% bovine serum albumin. […] Real time data were obtained by measuring fluorescence of the bound anti-phosphotyrosine antibody after each 5 cycles. Image quantification and data processing was conducted with dedicated Pamgene software (Evolve and Bionavigator).
# The 4 cell lines chosen, UT-SCC-9, UT-SCC-27, UT-SCC-54C, and UT-SCC-76 are patient derived cell lines, known to respond differently to radiation (in a model for therapy in head and neck cancer, squamous cell carcinomas, especially). […] The data shown are from a selected set of peptides of which the ratios of phosphorylation in the absence (0) and presence of the inhibitor are represented.
Compound,differences between the phosphorylation profiles with and without the protein kinase inhibitor [1],"inhibition profiles (ratios of phosphorylation in the absence and presence of the inhibitor), differences between cell lines [2]"
COc1cc2ncnc(Nc3ccc(F)c(Cl)c3)c2cc1OCCCN1CCOCC1 [Gefitinib],a number of essential differences,–
Cc1ccc(-c2nn(C(C)(C)C)c3ncnc(N)c23)cc1 [PP1],–,pronounced differences

# From US20110111980A1, “METHOD FOR PROFILING DRUG COMPOUNDS” (priority 2008, published 2011)
